Experimental data from US4762789A, “Serodiagnostic reagent for entamoeba histolytica” (priority 1986, dated 1988).
Like-named read-outs stand apart in the source and are kept apart here. Non-standard residues stand in square brackets, D forms with d. Residues, ends and D or L forms follow the SMILES beside them. *: point of attachment. Sta = CC(C)C[C@H](N)[C@@H](O)CC(=O)O; Isovaleryl = CC(C)CC(=O)*

What was measured:
neutral thiol proteinase = experiment: Effect of DTT on enzyme activity in assays; format: biochemical, Entamoeba histolytica; settings: 2 mM DTT
Description: 2 mM DTT was maintained throughout as it enhanced activity 2-4-fold in assays and prolonged stability of the enzyme during storage. Even so, as much as 25% of the activity was lost per day in storage at -20° C.
All assays were performed in 100 mM Tris/HCl, 2 mM DTT, pH 7.4 unless otherwise noted.

[1] = tested on: Mono P-purified enzyme (neutral thiol proteinase); experiment: Inhibition of MonoP purified enzyme, Azocoll assay; format: biochemical, Entamoeba histolytica; settings: for Effect of inhibitor on proteolytic activity of purified enzyme: at the concentrations tested (Table I); for Activity as % of control (without inhibitor), Mono P-purified Enzyme: Azocoll assay
Description: Fractions of peak activity from the anion exchange column were pooled and dialyzed overnight against buffer (25 mM bis-Tris, 2 mM DTT, pH 7.1) and applied to a MonoP chromatofocusing column at a flow rate of 0.25 ml/min. Typically, about 3 ml at 0.5 mg/ml were injected. Protein was eluted at a flow rate of 0.5 ml/min over a pH gradient of 7-5 formed with 10% Polybuffer 74, pH 5. (Polybuffer 74 is the Trademark of Pharmacia Inc., 800 Centennial Avenue, Piscataway, NJ 08854 for an amphoteric chromatofocusing buffer.) The gradient was generated with the GP-250 gradient programmer and continuously monitored with a pH meter and flow cell. Fractions were collected and checked for activity as described above.
(§1) Azocollytic activity was measured by incubation of 3 mg Azocoll with 10-100 microliters of enzyme (1 ml reaction volume) for 3-16 hours at 37° C. The tubes were then vortexed, microfuged, and the amount of degradation determined from the absorbance of the supernatant at 540 nm (A540). Control tubes were incubated without enzyme; bovine trypsin (5 micrograms; Sigma) was used to determine the total available substrate.
(§2) All inhibitors were obtained from Sigma except pepstatin A (Transformation Research, Inc., Farminham, MA) and bovine serum (Biofluids). TLCK was prepared as a stock solution in dimethyl sulfoxide (DMSO). Phenlylmethylsulfonyl fluoride (PMSF), pepstatin A, and 1,10-phenanthroline stock solutions were made up in ethanol. An equal volume of DMSO or ethanol alone was tested with enzynme and inhibition was calculated relative to the appropriate solvent control.

[2] = tested on: lysate and culture supernatant proteolytic activity; format: biochemical, Entamoeba histolytica
Description: (§3) "Log-phase" trophozoites (72 hours after passage) were washed to remove serum, and incubated in PBS with penicillin/streptomycin for 3 hours at 37° C. Amebae maintained greater than 90% viability as judged by Trypan blue exclusion and the absence of cytosolic alcohol dehydrogenase activity (Vallee 1955) in the PBS after incubation. Amebae were centrifuged, and the resulting supernatant passed through a 0.45 micron filter. This was designated as crude culture supernatant (CS).
For extracts, trophozoites were resuspended in PBS with penicillin/streptomycin and lysed in a nitrogen cavitation bomb (Kontes Glass Co.; Vineland, N.J.) after equilibration at 30 atm (3×10^6N/m^2) for 1 hour at 40° C. After centrifugation, the supernatant of this preparation was passed through a 0.45 micron filter and designated as soluble "lysate".
as §2, with “Inhibitors were preincubated with the enzyme at the indicated concentrations (See Table 1) for 20 minutes at ambient temperature; substrate was then added and proteolytic activity assayed against Z-Arg-Arg-AMC. All” for “All”

[3] = tested on: culture supernatant proteinase activity (Entamoeba histolytica trophozoites); experiment: Inhibition of culture supernatant proteolytic activity, Z-Arg-Arg-AMC assay; format: biochemical
Description: as §3
The Z-Arg-Arg-AMC assay is based on the fluorescence of the cleaved AMC group at 460 nm when excited at 380 nm (Castillo, et al, 1979). Enzyme samples (5-25 microliters) were added to a 4 micromolar solution of Z-Arg-Arg-AMC in buffer to a total volume of 2 ml. The rate of substrate hydrolysis at room temperature was determined from the rate of increase of fluorescence, monitored on a continuously recording spectrofluorometer (Aminco SPF-500; American Instrument Co., Silver Spring, MD). The scale was calibrated with a stock solution of 1.3 micromolar AMC (Sigma).
as §2, with “Inhibitors were preincubated with the enzyme at the indicated concentrations (See Table 1) for 20 minutes at ambient temperature; substrate was then added and proteolytic activity assayed against Z-Arg-Arg-AMC. All” for “All”

Plasminogen = Plasminogen activator assay (125I-fibrin plates); format: biochemical; settings: 3 hours; 100 microliters culture supernatant or lysate; urokinase 10 ploug units; less plasminogen-free control
Description: Plasminogen activator activity was determined by the method of Unkeless, et al. (1973) as modified by Aggeler, et al. (1981). Briefly, 24-well plates were coated with [^125 I]-labeled fibrinogen, and incubated with calf serum for two hours at 37° C. to convert fibrinogen to fibrin. Plasminogen (280 ng; final concentration, 6 nM) was added in 50 mM Tris/HCl (pH 7.8) with 100 microliters of culture supernatant or amebic lysate or 50 microliters of MonoP-purified enzyme, to a final volume of 0.5 ml. Controls were incubated without plasminogen added. Aliquots of supernatant (50 microliters) from quadruplicate wells were counted in a gamma counter (Auto-Gamma 500; Packard Instrument Corp.; Downer's Grove, IL). Total available fibrin was determined by trypsin digest. Urokinase (10 ploug units, Calbiochem; La Jolla, CA) was assayed for comparison. Results were expressed as the percentage of total available fibrin degraded less the percentage degraded by the corresponding plasminogen-free control.

[4] = tested on: culture supernatant proteinase activity (Entamoeba histolytica trophozoites); experiment: Inhibition of culture supernatant proteolytic activity, Azocoll assay; format: biochemical; settings: inhibitor 2 mM
Description: as §3, §1, §2

type I collagen = experiment: Degradation of type I collagen, SDS-PAGE; format: biochemical, bovine; settings: 3.5 hours at 37° C.
Description: 40 microgram aliquots of fibronectin (Bethesda Research Laboratories (BRL); Bethesda, MD), laminin (BRL), or type 1 collagen ("Vitrogen 100"), (Vitrogen 100 is the Trademark of Collagen Corp., Palo Alto, CA for a sterile solution of purified bovine dermal type I collagen), diluted to 1 mg/ml in buffer with 150 mM NaCl, were mixed with 40 microliters of MonoP purified enzyme or 10-20 microliters of culture supernatant. Volumes were brought to 80 microliters with 100 mM Tris, pH 7.2, and DTT was added to a final concentration of 2 mM. Samples were incubated for 3.5 hours (fibronectin and collagen) or 20 hours (laminin) at 37° C. along with matched amounts of substrate or enzyme alone as controls. Collagen was also incubated with 0.5 micrograms of TPCK trypsin (trypsin with tosyl-phenylalanine-chloromethyl-ketone to inhibit any contaminating chymotrypsin, (Worthington Biochemical Corp.; Freehold, NJ) to assay for non-specific cleavage.
Reactions were terminated with 2x sample buffer, and analyzed by SDS-PAGE (laminin with 5% and 10% gels; fibronectin with 7% gels; collagen with 10% gels) for evidence of degradation; 80 microliters was loaded into each lane.

[5] = at the concentrations tested (Table I)

O[C@H](CS)[C@H](O)CS (racemic) [DTT, DL-dithiothreitol]
enhancement of enzyme activity in assays (neutral thiol proteinase): 2-4 -fold

CCN1C(=O)C=CC1=O [N--ethylmaleimide (NEM), N-ethylmaleimide]
Effect of inhibitor on proteolytic activity of purified enzyme [1]: completely inhibited
Activity as % of control (without inhibitor), Mono P-purified Enzyme ([1]; inhibitor 5 mM): 0 % of control
Effect of inhibitor on proteolytic activity of lysate and culture supernatant [2, 5]: completely inhibited
Activity as % of control (without inhibitor), Culture Supernatant ([3]; inhibitor 5 mM, 20 min preincubation): 5 % of control

O=C(O)CN(CCN(CC(=O)O)CC(=O)O)CC(=O)O [ethylenediaminetetracetic acid (EDTA), ethylenediaminetetracetic acid]
Activity as % of control (without inhibitor), Mono P-purified Enzyme ([1]; inhibitor 10 mM): 100 % of control
Effect of inhibitor on proteolytic activity of lysate and culture supernatant [2]: not affected
Activity as % of control (without inhibitor), Culture Supernatant ([3]; inhibitor 10 mM, 20 min): 100 % of control

Cc1ccc(S(=O)(=O)N[C@@H](CCCCN)C(=O)CCl)cc1 [tosyl-lysyl-chloromethyl ketone (TLCK), tosyl-lysyl-chloromethyl ketone]
Effect of inhibitor on proteolytic activity of purified enzyme [1]: completely inhibited
Activity as % of control (without inhibitor), Mono P-purified Enzyme ([1]; inhibitor 0.1 mM): 0 % of control
Effect of inhibitor on proteolytic activity of lysate and culture supernatant [2, 5]: completely inhibited
Activity as % of control (without inhibitor), Culture Supernatant ([3]; inhibitor 0.1 mM, 20 min): 0 % of control

CC(C)CC(=O)N[C@H](C(=O)N[C@H](C(=O)N[C@@H](CC(C)C)[C@@H](O)CC(=O)N[C@@H](C)C(=O)N[C@@H](CC(C)C)[C@@H](O)CC(=O)O)C(C)C)C(C)C [pepstatin A] (Isovaleryl-VV[Sta]A[Sta]-OH)
Activity as % of control (without inhibitor), Mono P-purified Enzyme ([1]; inhibitor 100 microgram/ml): 100 % of control
Effect of inhibitor on proteolytic activity of lysate and culture supernatant [2, 5]: not affected
Activity as % of control (without inhibitor), Culture Supernatant ([3]; inhibitor 100 microgram/ml, 20 min): 100 % of control

urokinase
available fibrin degraded through plasminogen activation (Plasminogen): 38%

c1cnc2c(c1)ccc1cccnc12 [1,10-phenanthroline]
Activity as % of control (without inhibitor), Mono P-purified Enzyme ([1]; inhibitor 2 mM): 100 % of control
Effect of inhibitor on proteolytic activity of lysate and culture supernatant [2, 5]: not affected
Activity as % of control (without inhibitor), Culture Supernatant ([3]; inhibitor 2 mM, 20 min): 100 % of control

O=S(=O)(F)Cc1ccccc1 [phenylmethylsulfonyl fluoride (PMSF), phenylmethylsulfonyl fluoride]
Activity as % of control (without inhibitor), Culture Supernatant [4]: 100 % of control
Activity as % of control (without inhibitor), Mono P-purified Enzyme ([1]; inhibitor 2 mM): 100 % of control
Effect of inhibitor on proteolytic activity of lysate and culture supernatant [2, 5]: not affected

alpha1 -proteinase inhibitor: protein proteinase inhibitor obtained from Sigma
Effect of inhibitor on proteolytic activity of purified enzyme [1]: completely inhibited

O=C(O)CI [iodoacetate]
Effect of inhibitor on proteolytic activity of purified enzyme [1]: completely inhibited
Activity as % of control (without inhibitor), Mono P-purified Enzyme ([1]; inhibitor 3 mM): 0 % of control
Effect of inhibitor on proteolytic activity of lysate and culture supernatant [2]: completely inhibited
Activity as % of control (without inhibitor), Culture Supernatant ([3]; inhibitor 3 mM, 20 min): 0 % of control

CC(=O)N[C@@H](CC(C)C)C(=O)N[C@@H](CC(C)C)C(=O)N[C@H](C=O)CCCNC(=N)N [leupeptin]
Effect of inhibitor on proteolytic activity of purified enzyme [1]: completely inhibited
Activity as % of control (without inhibitor), Mono P-purified Enzyme ([1]; inhibitor 10 microM): 16 % of control
Activity as % of control (without inhibitor), Mono P-purified Enzyme ([1]; inhibitor 50 microM): 0 % of control
Activity as % of control (without inhibitor), Culture Supernatant ([3]; inhibitor 10 microM, 20 min): 68 % of control

B1: trypsin: TPCK trypsin (Worthington) used to assay non-specific cleavage of collagen (protein, UniProt P00760 24-246, looked up)
Serine protease 1: IVGGYTCGANTVPYQVSLNSGYHFCGGSLINSQWVVSAAHCYKSGIQVRLGEDNINVVEGNEQFISASKSIVHPSYNSNTLNNDIMLIKLKSAASLNSRVASISLPTSCASAGTQCLISGWGNTKSSGTSYPDVLKCLKAPILSDSSCKSAYPGQITSNMFCAGYLEGGKDSCQGDSGGPVVCSGKLQGIVSWGSGCAQKNKPGVYTKVCNYVSWIKQTIASN
modifications: TPCK-treated
notes: TPCK trypsin (Worthington) used to assay non-specific cleavage of collagen
degradation of type I collagen (type I collagen): lack of non-specific proteolysis
